Test results published in publication PMC12040169 (PLOS Biology, 2025).

Experiment: in vitro
Conditions: human, hela cells, % viability
Molecule `Cc1nc2cccnc2n1CCNC(=O)Cc1cccs1` [CBK283592] has a viability at 28.5 h, 10 µM of 107%.
`Cc1cc(Oc2ccc(Cl)cc2Cl)nc(OCC#N)n1` [CBK019232] showed a viability at 28.5 h, 10 µM of 96.9%.
Work on `Cc1c(C(=O)Nc2ccc(C(=O)O)cc2)nnn1-c1ccc(Cl)cc1` [CBK300532] yielded a viability at 28.5 h, 10 µM of 84.4%.
Work on `CCc1nc2ccc(C(=O)Nc3ccc(NC(C)=O)cc3)cn2c1N(C)CC` [CBK145483] yielded a viability at 28.5 h, 10 µM of 94.5%.
`Cc1cc(Br)ccc1S(=O)(=O)N(C)c1ccc(N2CCNCC2)c2ccccc12` [CBK016170C] showed a viability at 28.5 h, 10 µM of 96%.
With `CS(=O)(=O)N1CCN(CC(O)Cn2c3ccc(Cl)cc3c3cc(Cl)ccc32)CC1` (stereo not drawn) [CBK264381] the viability at 28.5 h, 10 µM was 94%.
With `N#CCCCN1CCC(Oc2nccnc2OCc2cccnc2)CC1` [CBK083171] the viability at 28.5 h, 10 µM was 85.9%.
Molecule `O=C(c1ccccc1Cl)N1N=C(c2cccnc2)CC1c1ccccc1O` (stereo not drawn) [CBK269182] has a viability at 28.5 h, 10 µM of 102%.
`O=C(O)c1ccc(Cl)c(-c2ccc(/C=N/Nc3ccc([N+](=O)[O-])cc3)o2)c1` [CBK078331] gave a viability at 28.5 h, 10 µM of 97.8%.
With `COCCN(Cc1cnn(C)c1)C(=O)c1ccc2oc(C)cc2c1` [CBK307059] the viability at 28.5 h, 10 µM was 96.6%.
Work on `O=c1cnn([C@H]2C[C@@H](O)[C@@H](CO)O2)c(=O)[nH]1` [CBK201162] yielded a viability at 28.5 h, 10 µM of 93.4%.
In the case of `CC1CCCCN1S(=O)(=O)c1ccc(-n2ncc(Cl)c(Cl)c2=O)cc1` (stereo not drawn) [CBK305035], the viability at 28.5 h, 10 µM is reported as 90.6%.
With `CCC(CC)C(=O)N(C)c1c(C)nc2ccc(C(=O)N3CCN(S(=O)(=O)CC)CC3)cn12` [CBK146524] the viability at 28.5 h, 10 µM was 92%.
`CCCn1c(C)nnc1CN(CC1CCCO1)C1CCC(C)CC1` (stereo not drawn) [CBK304485] showed a viability at 28.5 h, 10 µM of 92%.
`CC(C)(Oc1ccc(Br)cc1)C(=O)NCCOc1ccccc1` [CBK268287] gave a viability at 28.5 h, 10 µM of 114%.
With `Cc1ccn(CCNC(=O)CC2CC3CCC2C3)n1` (stereo not drawn) [CBK282068] the viability at 28.5 h, 10 µM was 110%.
With `COc1cc(/C=C/c2cc(C(F)(F)F)[nH]c(=O)n2)c(Cl)cc1O` [CBK287936] the viability at 28.5 h, 10 µM was 80%.
Molecule `Cc1cccc(C2(CNC(=O)C3COCCO3)CCCCC2)c1` (stereo not drawn) [CBK305087] has a viability at 28.5 h, 10 µM of 109%.
Work on `Cc1ncc2c(n1)CCCC2NC(=O)c1ccccc1Cn1cncn1` (stereo not drawn) [CBK306381] yielded a viability at 28.5 h, 10 µM of 100%.
For `O=C1c2ccccc2NC(c2cccc(O)c2)N1O` (stereo not drawn) [CBK288426], the viability at 28.5 h, 10 µM was 98.2%.
Work on `CN(Cc1ccncc1)C(=O)CCn1c(C(F)F)cc2cccnc21` [CBK285070] yielded a viability at 28.5 h, 10 µM of 81%.
With `CCNC(=O)Nc1cc2cccnc2nc1-c1cccc(C(F)(F)F)c1` [CBK070645] the viability at 28.5 h, 10 µM was 94.1%.
In the case of `O=C(/C=C/c1cccnc1)Nc1c(F)cc(F)cc1OC1CCNCC1` [CBK050324T], the viability at 28.5 h, 10 µM is reported as 90.5%.
In the case of `Cc1nc2c(OCc3ccc(C#N)cc3)cccn2c1N(C)Cc1cccs1` [CBK147336], the viability at 28.5 h, 10 µM is reported as 92%.
`COc1cccc(NC(=O)N[C@H]2C[C@@H](c3nc(-c4ccccn4)no3)N(C)C2)c1` [CBK288853] showed a viability at 28.5 h, 10 µM of 108%.
`CC[C@H]1CN(C(=O)NC(C)C)CC[C@H]1CC(=O)Nc1nccs1` [CBK288774] showed a viability at 28.5 h, 10 µM of 109%.
For `CCc1c[nH]c(SCC(=O)c2cc(C)n(C3CCS(=O)(=O)C3)c2C)n1` (stereo not drawn) [CBK306486], the viability at 28.5 h, 10 µM was 83.5%.
`CCN(CCn1cccn1)c1nc2nonc2nc1NC1CCCC1` [CBK307589] gave a viability at 28.5 h, 10 µM of 106%.
Molecule `N#C/C(=C(/O)c1ccc(-c2ccc([N+](=O)[O-])cc2Cl)o1)c1nc(-c2ccc(F)cc2)cs1` [CBK266742] has a viability at 28.5 h, 10 µM of 91%.
In the case of `N#CCCOc1nc2ccccc2nc1N1CCCC1` [CBK115763], the viability at 28.5 h, 10 µM is reported as 96.2%.
Work on `COc1cc(/C=N/NC(=O)c2cccnc2)cc([N+](=O)[O-])c1O` [CBK262233] yielded a viability at 28.5 h, 10 µM of 86.4%.
Molecule `O=C(O)c1ccc(N2CCCCS2(=O)=O)cc1Cl` [CBK287142] has a viability at 28.5 h, 10 µM of 84.5%.
In the case of `O=C(C1CC1)N1C[C@@H](c2ccsc2)[C@@H]2CN(C3CCCC3)CC[C@@H]21` [CBK283382], the viability at 28.5 h, 10 µM is reported as 107%.
`COc1cccc(NC(=O)C2CN(S(=O)(=O)c3ccccc3)CCN2S(=O)(=O)c2ccccc2)c1` (stereo not drawn) [CBK262694] gave a viability at 28.5 h, 10 µM of 85.9%.
With `Cn1ccnc1C(NC(=O)C1C2CCCCC21)c1ccc(F)cc1` (stereo not drawn) [CBK281441] the viability at 28.5 h, 10 µM was 98.7%.
In the case of `CCCOc1ccc(Cc2nnn[nH]2)cc1` [CBK262590], the viability at 28.5 h, 10 µM is reported as 83.9%.
`c1ccc(CN2CC[C@H](c3nc4ncccc4[nH]3)C2)cc1` [CBK289383] gave a viability at 28.5 h, 10 µM of 106%.
`CC(C)Oc1ccc(C(=O)N2CCC(COc3ccc(-c4ccc(S(C)(=O)=O)cc4)cn3)CC2)nc1` [CBK161989] gave a viability at 28.5 h, 10 µM of 86.8%.
In the case of `O=C(O)c1cccc(-c2cc(N3CCN(Cc4cccnc4)CC3)n3nccc3n2)c1` [CBK037080], the viability at 28.5 h, 10 µM is reported as 106%.
`CN(C)S(=O)(=O)N(CC(=O)O)c1ccccc1` [CBK267660] showed a viability at 28.5 h, 10 µM of 105%.
For `CN(CC(=O)Nc1ccccc1N1CCNCC1)C(=O)c1ccccc1` [CBK028287T], the viability at 28.5 h, 10 µM was 99.3%.
`Cc1ccc(S(=O)(=O)N(CC(=O)NCC2CCCO2)c2ccccc2)cc1` (stereo not drawn) [CBK264140] gave a viability at 28.5 h, 10 µM of 90.9%.
For `Cc1nccn1CCC(=O)Nc1ccccc1Oc1ccc(F)cc1` [CBK281473], the viability at 28.5 h, 10 µM was 91.9%.
`CCC(=O)N1c2ccc(C(O)CN3CCSCC3)cc2CC1C` (stereo not drawn) [CBK283122] showed a viability at 28.5 h, 10 µM of 91.5%.
Molecule `Cc1ccc(NC(=O)c2cc(NC(=O)C3C4C=CC(C4)C3C(=O)O)ccc2N2CCCCC2)cc1` (stereo not drawn) [CBK265350] has a viability at 28.5 h, 10 µM of 107%.
Molecule `O=C(NCc1ccc(Cl)c(Cl)c1)c1cncc(-c2ccc(C(=O)N3CCOCC3)cc2)c1` [CBK158612] has a viability at 28.5 h, 10 µM of 98.2%.
Molecule `COc1ccc(N2CCN(Cc3nc4c(c(=O)n(C)c(=O)n4C)n3C(C)C(C)=O)CC2)cc1` (stereo not drawn) [CBK269453] has a viability at 28.5 h, 10 µM of 88.7%.
`O=C1CC(N2CCN(c3ccccc3)CC2)C(=O)N1c1cccc2ccccc12` (stereo not drawn) [CBK261263] showed a viability at 28.5 h, 10 µM of 92.8%.
In the case of `Cc1ncsc1C(=O)N1CCNCC1c1cccc(F)c1` (stereo not drawn) [CBK305463], the viability at 28.5 h, 10 µM is reported as 93.1%.
`CC(CNC(=O)c1ccc([N+](=O)[O-])o1)N1CCc2sccc2C1` (stereo not drawn) [CBK297749] showed a viability at 28.5 h, 10 µM of 87.9%.
Work on `CCCCCNC(=N)NC1Cc2ccccc2C1` [CBK036321T] yielded a viability at 28.5 h, 10 µM of 98.8%.
Molecule `CCOC(=O)c1ccc(-n2c(CCC(=O)O)ccc2-c2cccs2)cc1O` [CBK266015] has a viability at 28.5 h, 10 µM of 103%.
Work on `COc1ccc(N2C(=O)CSC23C(=O)N(Cc2ccc(Cl)cc2)c2ccccc23)cc1` (stereo not drawn) [CBK092396] yielded a viability at 28.5 h, 10 µM of 91.6%.
`COc1ccc(OC)c(C(O)c2coc3ccc(O)c(CN(C)C)c23)c1` (stereo not drawn) [CBK261314] gave a viability at 28.5 h, 10 µM of 114%.
`CCC(=O)N[C@H](CC)Cn1ncc2ccccc2c1=O` [CBK284303] gave a viability at 28.5 h, 10 µM of 77.1%.
`Cc1cc(=O)oc2cc(OC(C)C(=O)Nc3sc4c(c3C(N)=O)CCCC4)ccc12` (stereo not drawn) [CBK268050] gave a viability at 28.5 h, 10 µM of 94.6%.
Molecule `COC(=O)C1Cc2cc3c(cc2C(c2cc(OC)c(OC)c(OC)c2)N1)OCO3` (stereo not drawn) [CBK200104T] has a viability at 28.5 h, 10 µM of 65.5%.
With `FC(F)(F)c1nc2ccccc2[nH]1` [CBK028224] the viability at 28.5 h, 10 µM was 84.5%.
In the case of `Cc1ccc(SCC(=O)NCCCN2CCOCC2)cc1` [CBK267678], the viability at 28.5 h, 10 µM is reported as 99.3%.
Work on `CCCCC(Sc1nc(N)cc(Cl)n1)c1cc(C)ccn1` (stereo not drawn) [CBK016827] yielded a viability at 28.5 h, 10 µM of 106%.

Same assay, conditions: human, hela cells, % viability, bulk resorufin, single well
`CSc1cc(C)c2c(c1)COC1(CCN(C(=O)Nc3cccs3)CC1)O2` [CBK060795] showed a viability at 28.5 h, 10 µM of 90.6%.
`CCOC(=O)C1(c2ccccc2)CCN(C(=O)Cc2ccc(Cl)c(Cl)c2)CC1` [CBK132175] showed a viability at 28.5 h, 10 µM of 113%.
For `O=C(O)COCC(=O)N1CCC2(CC1)OCc1cc(F)ccc1O2` [CBK060859], the viability at 28.5 h, 10 µM was 106%.
